Reference: ChEMBL document CHEMBL1201862, “PubChem BioAssay data set” (2004)
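Values below derive from 48-hour exposures of cells grown in 96-well plates, with endpoints linearly interpolated between the two concentrations bracketing the appropriate inhibition level. The concentration for 50% growth inhibition is given as GI50.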 Active and inactive are the calls of the source. No stated cut-off is given here; in the data, active = GI50 up to about 1.1 µM and inactive = higher.

Legend:
Experiment in all cases: NCI anticancer screen, dose series, 48 h
[1] = tested on: RXF 393
[2] = tested on: ACHN
[3] = tested on: KM12
[4] = tested on: NCI-H522
[5] = tested on: SNB-78
[6] = tested on: K562
[7] = tested on: TK-10
[8] = tested on: EKVX
[9] = tested on: HCT-116
[10] = tested on: SK-MEL-5
[11] = tested on: HT-29
[12] = tested on: HOP-62
[13] = tested on: HOP-92
[14] = tested on: OVCAR-3
[15] = tested on: NCI-H23
[16] = tested on: KM-20L2
[17] = tested on: U-251
[18] = tested on: RPMI-8226
[19] = tested on: CAKI-1
[20] = tested on: CCRF-CEM
[21] = tested on: A498
[22] = tested on: DMS-273
[23] = tested on: Malme-3M
[24] = tested on: SF-268
[25] = tested on: M19-MEL
[26] = tested on: XF498
[27] = tested on: 786-0
[28] = tested on: OVCAR-4
[29] = tested on: SK-MEL-28
[30] = tested on: SNB-75
[31] = tested on: LOX IMVI
[32] = tested on: SF-295
[33] = tested on: M14
[34] = tested on: RXF 631
[35] = tested on: OVCAR-5
[36] = tested on: A549
[37] = tested on: DLD-1
[38] = tested on: LXFL 529
[39] = tested on: MOLT-4
[40] = tested on: IGROV-1
[41] = tested on: HOP-18
[42] = tested on: NCI-H460
[43] = tested on: SNB-19
[44] = tested on: UO-31
[45] = tested on: DMS-114
[46] = tested on: SK-MEL-2
[47] = tested on: NCI-H226
[48] = tested on: HCT-15
[49] = tested on: UACC-62
[50] = tested on: UACC-257
[51] = tested on: SF-539
[52] = tested on: OVCAR-8
[53] = tested on: SK-OV-3
[54] = tested on: COLO 205
[55] = tested on: HL-60
[56] = tested on: SW-620
[57] = tested on: HCC 2998
[58] = tested on: SN12C

CC(=O)Nc1ccccc1S(=O)(=O)c1ccccc1
GI50 [1]: > 100 µM (inactive) | GI50 [2]: > 100 µM (inactive) | GI50 [3]: > 100 µM (inactive) | GI50 [4]: > 100 µM (inactive) | GI50 [5]: > 100 µM (inactive) | GI50 [6]: > 100 µM (inactive) | GI50 [7]: > 100 µM (inactive) | GI50 [8]: > 100 µM (inactive) | GI50 [9]: > 100 µM (inactive) | GI50 [10]: > 100 µM (inactive) | GI50 [11]: > 100 µM (inactive) | GI50 [12]: > 100 µM (inactive) | GI50 [13]: 43.9 µM (inactive) | GI50 [14]: > 100 µM (inactive) | GI50 [15]: > 100 µM (inactive) | GI50 [16]: > 100 µM (inactive) | GI50 [17]: > 100 µM (inactive) | GI50 [18]: > 100 µM (inactive) | GI50 [19]: > 100 µM (inactive) | GI50 [20]: > 100 µM (inactive) | GI50 [21]: > 100 µM (inactive) | GI50 [22]: > 100 µM (inactive) | GI50 [23]: > 100 µM (inactive) | GI50 [24]: > 100 µM (inactive) | GI50 [25]: > 100 µM (inactive) | GI50 [26]: 79.6 µM (inactive) | GI50 [27]: > 100 µM (inactive) | GI50 [28]: > 100 µM (inactive) | GI50 [29]: > 100 µM (inactive) | GI50 [30]: > 100 µM (inactive) | GI50 [31]: > 100 µM (inactive) | GI50 [32]: > 100 µM (inactive) | GI50 [33]: > 100 µM (inactive) | GI50 [34]: > 100 µM (inactive) | GI50 [35]: 0.0409 µM (active) | GI50 [36]: > 100 µM (inactive) | GI50 [37]: > 100 µM (inactive) | GI50 [38]: > 100 µM (inactive) | GI50 [39]: > 100 µM (inactive) | GI50 [40]: > 100 µM (inactive) | GI50 [41]: > 100 µM (inactive) | GI50 [42]: > 100 µM (inactive) | GI50 [43]: > 100 µM (inactive) | GI50 [44]: > 100 µM (inactive) | GI50 [45]: > 100 µM (inactive) | GI50 [46]: > 100 µM (inactive) | GI50 [47]: > 100 µM (inactive) | GI50 [48]: > 100 µM | GI50 [49]: > 100 µM (inactive) | GI50 [50]: > 100 µM (inactive) | GI50 [51]: > 100 µM (inactive) | GI50 [52]: > 100 µM (inactive) | GI50 [53]: > 100 µM (inactive) | GI50 [54]: > 100 µM (inactive) | GI50 [55]: > 100 µM (inactive) | GI50 [56]: > 100 µM (inactive) | GI50 [57]: > 100 µM (inactive) | GI50 [58]: > 100 µM (inactive)
